The results in this text go back to PubChem BioAssay (NCI).

Where “and” joins values, the source holds several entries; their conditions need not be identical. Equal entries are not always repeated.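 The compound was tested at five concentrations on cells cultured in 96-well plates, with a 48-hour exposure period. At the GI50, growth is halved. TGI denotes the concentration required for complete inhibition of growth.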

What all share (test): NCI tumour cell line growth inhibition, 48 h
Test [1] has as its system T-47D breast.
Test [2] concerns M19-MEL melanoma.
The subject of test [3] is HOP-18 NSCLC.
In test [4] the test system is DMS 114 small cell lung.
The test system of test [5] is MDA-N.
Test [6] has as its system SNB-78 CNS.
The test system of test [7] is DLD-1 colon.
Test [8] has as its system RXF-631 renal.

In the case of `COc1ccc2[nH]c3c4[nH]c5ccc(OC)cc5c4c4c(c3c2c1)C(=O)NC4=O`, in test [1], the GI50 is greater than 25 µM and the TGI was greater than 25 µM.
`Cc1[nH]c(=O)nc2[nH][nH]c(=O)c12`: the TGI in test [2], in test [3] and in test [4] was greater than 100 µM in each case.
Take `CN1CCc2nc(N)nc(-c3nc(N)nc4c3CN(C)CC4)c2C1`: the TGI in test [5] and in test [1] was greater than 100 µM each time.
For the compound `O=C1C2C3C=C4c5ccccc5N(c5ccccc5)C4(C2C(=O)N1c1ccc([N+](=O)[O-])cc1)[C@H]1C(=O)N(c2ccc([N+](=O)[O-])cc2)C(=O)[C@@H]31` (stereo partly specified), the TGI in test [2], in test [6], in test [3], in test [4] and in test [7] was greater than 100 µM throughout.
`Nc1nc(Nc2cccnc2)sc1C(=O)c1ccccc1F`: in test [1], the GI50 was 1.83 µM and the TGI was found to be 11.9 µM.
`Clc1cc(Cl)c2ns[s+]c2c1Cl`: the TGI is greater than 100 µM in test [2], 14.8 µM in test [6], greater than 100 µM in test [3] and greater than 100 µM in test [7].
On to `CCc1nc(N)nc(N)c1-c1ccc(NC)c([N+](=O)[O-])c1`, for which the TGI in test [5] and in test [1] was greater than 100 µM each time.
On to `CCOC(=O)C1SC(=Nc2ccc(C)c(C)c2)N=C1C` (stereo unspecified), for which the TGI in test [2], in test [3], in test [4] and in test [7] was greater than 100 µM each time.
As to `COc1ccc(/C=C/c2c(C(=O)/C=C/c3ccccc3)c(C)nc3ccccc23)cc1`, in test [1], the GI50 was 1.77 µM and the TGI was determined as 5.11 µM.
Take `CN(C)CCNc1ccc(CO)c2oc3ccc(O)cc3c(=O)c12`: the TGI in test [5] worked out at 25.7 µM; in test [1], 59.4 µM.
On to `NC(=O)c1cc(Cl)ccc1NC(=O)/C=C/c1ccccc1`, for which, in test [1], the GI50 is 4.8 µM and the TGI was greater than 100 µM.
For `COc1ccc2c3c([nH]c2c1[N+](=O)[O-])C(C)N(C)CC3` (stereo unspecified), the TGI in test [2] was greater than 100 µM; in test [6] it was greater than 100 µM; in test [3] it was 84.9 µM; in test [4], greater than 100 µM; in test [7] it was greater than 100 µM.
In the case of `O=C(N/N=C/c1cc(Br)ccc1O)N/N=C/c1cc(Br)ccc1O`, the TGI in test [2], in test [8], in test [4] and in test [7] was greater than 100 µM throughout.
In the case of `COc1c2c(cc3c1OCO3)[C@]13C=C[C@H](OC)C[C@H]1N(C2)CC3O` (stereo partly specified), the TGI in test [5] and in test [1] was greater than 100 µM throughout.
As to `C/C(=N\Nc1ccc(Cl)cn1)c1ccc2ccccc2n1`, in test [1], the GI50 was 3.48 µM and the TGI came out at 68.4 µM.
Consider `Cc1cc2ncnn2cc1Nc1ncc2c(n1)n(C1CCOCC1)c(=O)n2C`, for which, in test [1], the GI50 was 1.41 µM and the TGI was found to be 6.42 µM.
As for `COC(=O)C(CC(=O)Nc1ccc(C)cc1)C(=O)C(=O)Nc1c(C(C)C)cccc1C(C)C` (stereo unspecified), the TGI in test [2], in test [8], in test [6], in test [4] and in test [7] was greater than 100 µM each time.
Consider `Cc1cc(NS(=O)(=O)c2ccc(Nc3c4ccccc4nc4c(C(=O)N5CCN(CCO)CC5)cccc34)cc2)no1`, for which the TGI in test [2], in test [6], in test [3], in test [4] and in test [7] was greater than 100 µM in each case.
As to `COc1ccc(-c2cc(-c3cc(C)cc(Br)c3O)no2)cc1`, the TGI in test [5] is greater than 100 µM; in test [1], 34 µM.
For `O=c1cc(NCC(O)CN2CCCC2)n(Cc2ccccc2)c(=O)n1Cc1ccccc1` (stereo unspecified), in test [1], the GI50 was 52.4 µM and the TGI was greater than 100 µM.
Taken in the same sequence, the figures for `CC12OC(C(=O)C13CC3)C1C(=O)c3ccc4c(ccc5ccccc54)c3C(=O)C12` (stereo unspecified) were 25.7 µM and 98.9 µM.
For `CCc1nc2cc(F)c(/C=C/C(=O)NO)cc2c(=O)n1CCc1ccccc1` the same measures were 0.22 µM and 0.853 µM.
With `CCCC1=C(CC)C(C(=O)Nc2c(C)cccc2C)=NC(S)N1` (stereo unspecified), the TGI in test [2], in test [6], in test [3], in test [4] and in test [7] was greater than 100 µM each time.
With `N#Cc1cc(-c2cc3ccccc3o2)oc1N`, in test [1], the GI50 is 3.89 µM and the TGI stood at 59 µM.
On to `CCOC(=O)C1CCN(S(=O)(=O)/N=C2/NC(=O)NC2=C(Cl)Cl)CC1`, for which, in test [1], the GI50 is 4.41 µM and the TGI came to 32.9 µM.
Take `COc1ccc(C(=O)c2cc(C)c(OC)c(C)c2)cc1OC(=O)CCl`: in test [1], the GI50 was 10.5 µM and the TGI is 67.9 µM.
In turn, `Cc1cc(NC(=S)SCc2ccc(F)cc2)c([N+](=O)[O-])cc1C` gave a TGI in test [1] greater than 100 µM.
`O=C(Nc1ccccc1-c1nc2ccccc2[nH]c1=O)c1ccccc1`: the TGI is 91.2 µM in test [2], 69.2 µM in test [6], 40.7 µM in test [4] and 68.2 µM in test [7].
As for `NNC(=S)N/N=C(/C(=O)Nc1ccc(Cl)c(Cl)c1)C(C1OC(=O)c2ccccc21)[N+](=O)[O-]` (stereo unspecified), the TGI in test [5] and in test [1] was greater than 100 µM throughout.
Regarding `Cc1cc2nc(C=C(C(F)(F)F)C(F)(F)F)oc2cc1C`, the results for the TGI in test [5] and in test [1] were greater than 10 µM and 8.53 µM, respectively.
`COc1ccc(C(=O)c2cc(C)c(OC)c(C)c2)c(OC)c1O`: in test [1], the GI50 is 5.95 µM and the TGI is greater than 100 µM.
For the compound `CC(C)c1ccc(-c2cc(-c3cn[nH]c3-c3ccccn3)ccn2)cc1`, in test [1], the GI50 was 6.96 µM and the TGI was greater than 23.7 µM.
Take `CCCN(CCC)C(=O)c1c([N+](=O)[O-])cc(C(F)(F)F)cc1[N+](=O)[O-]`: the results for the TGI in test [2] and in test [6] were 27 µM and greater than 100 µM, respectively.
Consider `C=C1C(=O)O[C@H]2[C@H]1CC/C(COC(=O)NCCCCNC(=O)OC/C1=C/CC[C@@]3(C)O[C@H]3[C@H]3OC(=O)C(=C)[C@@H]3CC1)=C\CC[C@@]1(C)O[C@@H]21`, for which, in test [1], the GI50 was 1.51 µM and the TGI is 4.17 µM.
Regarding `NS(=O)(=O)c1ccc(-c2ccc3c(NC(=O)C4CC4)n[nH]c3c2)cc1`, in test [1], the GI50 was greater than 25 µM and the TGI is greater than 25 µM.
With `O=C1c2ccccc2C(=O)C1(O)c1c[nH]c2ccccc12`, the TGI in test [2], in test [8], in test [6], in test [4] and in test [7] was greater than 100 µM each time.
With `[N-]=[N+]=C1C(=O)NN=C1c1ccccc1`, the TGI in test [2], in test [8], in test [4] and in test [7] was greater than 100 µM in each case.
As for `COc1cc2c(cc1OCCCCC(=O)Nc1cc3c4ccccc4ccc3c3ccccc13)N=C[C@@H]1CCCN1C2=O`, in test [1], the GI50 is 11.1 µM and the TGI is greater than 100 µM.
For the compound `COc1ccc(-c2[nH]c3ccc(OC)cc3c2/C=C(\C#N)S(=O)(=O)c2ccccc2)cc1`, in test [1], the GI50 was 0.901 µM and the TGI came to 12.1 µM.
For `COC(=O)[C@@]12C(=O)C=CC(=O)C1C1C(=CC2C)OC2OC3(CCCCC3)OC21` (stereo partly specified), the TGI in test [2] worked out at 35.1 µM; in test [6] it was 42.3 µM; in test [3] it was 34.6 µM; in test [4], 31.4 µM; in test [7], 35.7 µM.
As to `CCCCC(CC)COC(=O)C[N+](C)(C)CCOC(c1ccccc1)c1ccccc1` (stereo unspecified), in test [1], the GI50 was 1.91 µM and the TGI amounted to 4.44 µM.
Consider `CNC(=S)/N=C(\N)N(C)C`, for which the TGI in test [2], in test [6], in test [3], in test [4] and in test [7] was greater than 100 µM in each case.
`Nc1ccccc1/C(O)=C1/CCOC1=O`: the TGI in test [2], in test [6], in test [4] and in test [7] was greater than 100 µM throughout.
On to `COc1ccc(C2=C(Cl)c3cc(OC)c(OC)cc3C2Cl)cc1` (stereo unspecified), for which the TGI in test [5] came out at 22.8 µM; in test [1] it was 35.1 µM; in test [2] it was 35.8 µM; in test [6] it was 49.3 µM; in test [3] it was 53.5 µM; in test [4], 31.8 µM.
Regarding `CN1CCN(CCCNc2nc3ccc(Oc4ccc(NC(=O)Nc5cc(C(F)(F)F)ccc5F)cc4)cc3[nH]2)CC1`, in test [1], the GI50 was 3.43 µM and the TGI was 7.21 µM.
For `c1ccc(Sc2ccc(Cc3nc4cc5ccccc5cc4[nH]3)cc2)cc1` the same measures were 5.2 µM and 26.2 µM.
As to `CC1=CC(=O)C=CC1=O`, in test [1], the GI50 is 11.9 µM and 2.54 µM; the TGI was 36.1 µM and 6.78 µM.
Turning to `C=C(C)[C@@H]1CC[C@]2(CO)CC[C@]3(C)[C@H](CC[C@@H]4[C@@]5(C)C=C(C#N)C(=O)C(C)(C)[C@@H]5CC[C@]43C)[C@@H]12`, in test [1], the GI50 was 1.12 µM and the TGI turned out to be 5.79 µM.
Consider `CC1(C)C(=O)/C(=C\c2cccnc2)C[C@]2(C)[C@H]3CC[C@@H]4[C@H]5[C@H](C(=O)/C=C/c6cccnc6)CC[C@]5(C(=O)O)CC[C@@]4(C)[C@]3(C)CC[C@@H]12`, for which, in test [1], the GI50 is 3.75 µM and the TGI amounted to 24.6 µM.
`CCCCNC1CCCCC[C@H]1O` (stereo partly specified): the TGI in test [2], in test [6], in test [3], in test [4] and in test [7] was greater than 100 µM in each case.
Regarding `COc1cc(/C=C/c2ccc(OC)c(O)c2)cc(OC)c1`, the TGI in test [2] stood at 30.9 µM; in test [6], 44.4 µM; in test [4], 17.9 µM; in test [7] it was 24.7 µM.
With `O=C1c2cccnc2-c2nc(-c3ccc(Cl)cc3)cc3c2c1nc1ccccc13`, in test [5], the GI50 is 40 µM and the TGI was greater than 100 µM. Besides, in test [1], the GI50 was greater than 100 µM and the TGI was greater than 100 µM.
Turning to `COc1cc2c3c(n(CCCN)c(=O)c2cc1OC)-c1ccc(C#N)cc1C3=O`, in test [1], the GI50 is 13.2 µM and the TGI is 34.9 µM.
As to `COC(=O)C(Cc1nc2ccccc2[nH]c1=O)C(NO)C(=O)Nc1c(Cl)cc([N+](=O)[O-])cc1Cl` (stereo unspecified), the figures for the TGI in test [6], in test [4] and in test [7] were greater than 100 µM, 54.8 µM and greater than 100 µM, respectively.
For `Cc1nnc(NS(=O)(=O)c2ccc(N=Nc3cc(N=Nc4ccc(S(=O)(=O)Nc5nnc(C)s5)cc4)c4c(NC(=O)C(Cl)Cl)cccc4c3OC(=O)C(Cl)Cl)cc2)s1` (tested in a mixture with another compound), the TGI in test [2] was 57.2 µM; in test [8], greater than 100 µM; in test [6], greater than 100 µM; in test [4], 62.5 µM; in test [7] it was 42.9 µM.
Regarding `O=C(Nc1n[nH]c2cc(-c3ccccc3)ccc12)C1CC1`, in test [1], the GI50 was 17.8 µM and the TGI is greater than 25 µM.
In the case of `O=S(=O)(c1ccc(NC(=S)NC23CC4CC(CC(C4)C2)C3)cc1)N1CCCCC1`, in test [1], the GI50 was 3.28 µM and the TGI is greater than 100 µM.
For the compound `OCC1OC(n2cnc3c2NC=NC[C@H]3O)C(Cl)C1O` (stereo partly specified), the TGI in test [5] and in test [1] was greater than 100 µM in each case.
In the case of `Cc1cc(N(CCC#N)CCC#N)ccc1/C=C(\NC(=O)/C=C/c1ccccc1)C(N)=O`, the TGI in test [2], in test [6], in test [4] and in test [7] was greater than 100 µM each time.
Regarding `COc1c(C(=O)/C=C/c2ccccc2)c(O)cc2occc12`, in test [1], the GI50 was 10.5 µM and the TGI stood at 32.4 µM.
`CC(C)c1c(O)c(O)c2c(c1O)C(=O)C(O)=C1C(C)(C)CCC[C@@]12C` came in with a TGI in test [1] of 16.5 µM.
Take `CC/C=C\C[C@H](O)C/C=C1/C(=O)C=C[C@@H]1C/C=C\CCCC(=O)OC`: in test [1], the GI50 was 2.52 µM and the TGI turned out to be 12.8 µM.
